Assay results taken from patent EP0908457B1, “3-(1,2-benzisothiazol- and isoxazol-5-Y1)-2,4(1H,3H)-pyrimidinedione or thione and 3-(1,2-benzisothiazol- and isoxazol-5-y1)-4(3H)-pyrimidinone or thione herbicidal agents” (BASF AKTIENGESELLSCHAFT, priority 1997, dated 1999).

Assays:
[1] = system: Monochoria vaginalis, Presl.; assay: Preemergence weed control under flooded paddy conditions, MOOVA (Monochoria); type: in vivo; details: flooded paddy; for MOOVA herbicidal effect rating / herbicidal effect rating, MOOVA: preemergence; for MOOVA: preemergence weeds, herbicidal effect rating 0-9, three to four weeks after treatment; as to herbicidal effect rating, MOOVA: meaning of each grade not given here
[2] = system: Oryza sativa, (L.) Tebonnet; assay: Rice tolerance to post-transplant applications under flooded paddy conditions (Example 187), ORYSAT (Rice, Tebonnet); details: for ORYSAT herbicidal effect rating / herbicidal effect rating, ORYSAT (rice tolerance): rated three to four weeks after treatment; for herbicidal effect rating ORYSAT: rated 3-4 weeks after treatment; for ORYSAT: herbicidal effect rating 0-9, three to four weeks after treatment; as to herbicidal effect rating ORYSAT: meaning of each grade not given here
Sagittaria pygmaea, L. = assay: Preemergence weed control under flooded paddy conditions, SAGPY (Arrowhead (Pygmaea)); type: in vivo; details: flooded paddy; for SAGPY herbicidal effect rating / herbicidal effect rating, SAGPY: preemergence; for SAGPY: preemergence weeds, herbicidal effect rating 0-9, three to four weeks after treatment; as to herbicidal effect rating, SAGPY: meaning of each grade not given here
Cyperus iria = assay: Preemergence weed control under flooded paddy conditions, CYPIR (Rice Flatsedge); type: in vivo; details: flooded paddy; for CYPIR herbicidal effect rating / herbicidal effect rating, CYPIR: preemergence; for CYPIR: preemergence weeds, herbicidal effect rating 0-9, three to four weeks after treatment; as to herbicidal effect rating, CYPIR: meaning of each grade not given here
[3] = system: Echinochloa oryzoides (Ard.) Fritsch.; assay: Preemergence weed control under flooded paddy conditions, ECHORC (Watergrass (Calif.)); type: in vivo; details: flooded paddy; for ECHORC herbicidal effect rating / herbicidal effect rating, ECHORC: preemergence; for ECHORC: preemergence weeds, herbicidal effect rating 0-9, three to four weeks after treatment; as to herbicidal effect rating, ECHORC: meaning of each grade not given here
[4] = system: Cyperus serotinus, Rottb.; assay: Preemergence weed control under flooded paddy conditions, CYPSE (Flatsedge); type: in vivo; details: for CYPSE herbicidal effect rating / herbicidal effect rating, CYPSE: preemergence; for CYPSE: preemergence weeds, herbicidal effect rating 0-9, three to four weeks after treatment; as to herbicidal effect rating, CYPSE: meaning of each grade not given here
[5] = Rate 0.0320 kg/ha, rated three to four weeks after treatment
[6] = Rate 0.0620 kg/ha, rated three to four weeks after treatment
[7] = Rate 0.1250 kg/ha, rated three to four weeks after treatment
[8] = Rate 0.2500 kg/ha, rated three to four weeks after treatment
[9] = Rate 0.0320 kg/ha, rated 3-4 weeks after treatment
[10] = Rate 0.0620 kg/ha, rated 3-4 weeks after treatment
[11] = Rate 0.1250 kg/ha, rated 3-4 weeks after treatment
[12] = Rate 0.2500 kg/ha, rated 3-4 weeks after treatment
[13] = Rate 0.5000 kg/ha, rated 3-4 weeks after treatment
[14] = 0.0313 kg/ha, rated three to four weeks after treatment
[15] = 0.0625 kg/ha, rated three to four weeks after treatment
[16] = 0.1250 kg/ha, rated three to four weeks after treatment
[17] = 0.2500 kg/ha, rated three to four weeks after treatment

Cc1ccc(OCC(=O)NS(=O)(=O)c2sc3ccc(Cl)cc3c2C)c(-c2nsc3ccc(-n4c(=O)cc(C(F)(F)F)n(C)c4=O)cc23)c1 [Example 290, Acetamide, N-[(5-chloro-3-methylbenzo[b]thien-2-yl)sulfonyl]-2-{{2-{5-[3,6-dihydro-3-methyl-2,6-dioxo-4-(trifluoromethyl)-1(2H)-pyrimidinyl]-1,2-benzisothiazol-3-yl}-p-tolyl}oxy}-]
MOOVA herbicidal effect rating [1, 5]: 0.0
MOOVA herbicidal effect rating [1, 6]: 7.0
MOOVA herbicidal effect rating [1, 7]: 7.0
MOOVA herbicidal effect rating [1, 8]: 7.0
ORYSAT herbicidal effect rating ([2]; Rate 0.0320 kg/ha): 0.0
ORYSAT herbicidal effect rating ([2]; Rate 0.0620 kg/ha): 0.0
ORYSAT herbicidal effect rating ([2]; Rate 0.1250 kg/ha): 0.0
ORYSAT herbicidal effect rating ([2]; Rate 0.2500 kg/ha): 0.0
SAGPY herbicidal effect rating (Sagittaria pygmaea, L.; [5]): 0.0
SAGPY herbicidal effect rating (Sagittaria pygmaea, L.; [6]): 0.0
SAGPY herbicidal effect rating (Sagittaria pygmaea, L.; [7]): 0.0
SAGPY herbicidal effect rating (Sagittaria pygmaea, L.; [8]): 0.0
CYPIR herbicidal effect rating (Cyperus iria; [5]): 6.0
CYPIR herbicidal effect rating (Cyperus iria; [6]): 6.0
CYPIR herbicidal effect rating (Cyperus iria; [7]): 6.0
CYPIR herbicidal effect rating (Cyperus iria; [8]): 6.0
ECHORC herbicidal effect rating [3, 5]: 0.0
ECHORC herbicidal effect rating [3, 6]: 0.0
ECHORC herbicidal effect rating [3, 7]: 3.0
ECHORC herbicidal effect rating [3, 8]: 7.0
CYPSE herbicidal effect rating [4, 5]: 0.0
CYPSE herbicidal effect rating [4, 6]: 0.0
CYPSE herbicidal effect rating [4, 7]: 0.0
CYPSE herbicidal effect rating [4, 8]: 0.0

C#CC(C)OC(=O)C(C)(C)Oc1ccc(C)cc1-c1nsc2ccc(-n3c(=O)cc(C(F)(F)F)n(C)c3=O)cc12 (stereo not drawn) [Example 531, Propionic acid, 2-{{2-{5-[3,6-dihydro-3-methyl-2,6-dioxo-4-(trifluoromethyl)-1(2H)-pyrimidinyl]-1,2-benzisothiazol-3-yl}-p-tolyl}oxy}-2-methyl-, 1-methyl-2-propynyl ester]
herbicidal effect rating, MOOVA [1, 9]: 9.0
herbicidal effect rating, MOOVA [1, 10]: 9.0
herbicidal effect rating, MOOVA [1, 11]: 9.0
herbicidal effect rating, MOOVA [1, 12]: 9.0
herbicidal effect rating ORYSAT ([2]; Rate 0.0320 kg/ha): 0.0
herbicidal effect rating ORYSAT ([2]; Rate 0.0620 kg/ha): 0.0
herbicidal effect rating ORYSAT ([2]; Rate 0.1250 kg/ha): 3.0
herbicidal effect rating ORYSAT ([2]; Rate 0.2500 kg/ha): 9.0
herbicidal effect rating, SAGPY (Sagittaria pygmaea, L.; [9]): 0.0
herbicidal effect rating, SAGPY (Sagittaria pygmaea, L.; [10]): 0.0
herbicidal effect rating, SAGPY (Sagittaria pygmaea, L.; [11]): 3.0
herbicidal effect rating, SAGPY (Sagittaria pygmaea, L.; [12]): 3.0
herbicidal effect rating, CYPIR (Cyperus iria; [9]): 0.0
herbicidal effect rating, CYPIR (Cyperus iria; [10]): 0.0
herbicidal effect rating, CYPIR (Cyperus iria; [11]): 4.0
herbicidal effect rating, CYPIR (Cyperus iria; [12]): 4.0
herbicidal effect rating, ECHORC [3, 9]: 9.0
herbicidal effect rating, ECHORC [3, 10]: 9.0
herbicidal effect rating, ECHORC [3, 11]: 9.0
herbicidal effect rating, ECHORC [3, 12]: 9.0
herbicidal effect rating, CYPSE [4, 9]: 0.0
herbicidal effect rating, CYPSE [4, 10]: 0.0
herbicidal effect rating, CYPSE [4, 11]: 3.0
herbicidal effect rating, CYPSE [4, 12]: 3.0

Cn1c(C(F)(F)F)cc(=O)n(-c2ccc3snc(-c4ccccc4OCC(=O)C(C)(C)C)c3c2)c1=O [Example 549, 2,4(1H,3H)-Pyrimidinedione, 3-{3-[o-(3,3-dimethyl-2-oxobutoxy)phenyl)-1,2-benzisothiazol-5-yl}-1-methyl-6-(trifluoromethyl)-]
herbicidal effect rating, MOOVA [1, 9]: 9.0
herbicidal effect rating, MOOVA [1, 10]: 9.0
herbicidal effect rating, MOOVA [1, 11]: 9.0
herbicidal effect rating, MOOVA [1, 12]: 9.0
herbicidal effect rating, MOOVA [1, 13]: 9.0
herbicidal effect rating ORYSAT ([2]; Rate 0.0320 kg/ha): 4.0
herbicidal effect rating ORYSAT ([2]; Rate 0.0620 kg/ha): 4.0
herbicidal effect rating ORYSAT ([2]; Rate 0.1250 kg/ha): 4.0
herbicidal effect rating ORYSAT ([2]; Rate 0.2500 kg/ha): 4.0
herbicidal effect rating ORYSAT ([2]; Rate 0.5000 kg/ha): 2.0
herbicidal effect rating, SAGPY (Sagittaria pygmaea, L.; [9]): 0.0
herbicidal effect rating, SAGPY (Sagittaria pygmaea, L.; [10]): 0.0
herbicidal effect rating, SAGPY (Sagittaria pygmaea, L.; [11]): 4.0
herbicidal effect rating, SAGPY (Sagittaria pygmaea, L.; [12]): 4.0
herbicidal effect rating, SAGPY (Sagittaria pygmaea, L.; [13]): 0.0
herbicidal effect rating, CYPIR (Cyperus iria; [9]): 7.0
herbicidal effect rating, CYPIR (Cyperus iria; [10]): 9.0
herbicidal effect rating, CYPIR (Cyperus iria; [11]): 9.0
herbicidal effect rating, CYPIR (Cyperus iria; [12]): 9.0
herbicidal effect rating, CYPIR (Cyperus iria; [13]): 9.0
herbicidal effect rating, ECHORC [3, 9]: 3.0
herbicidal effect rating, ECHORC [3, 10]: 3.6
herbicidal effect rating, ECHORC [3, 11]: 5.1
herbicidal effect rating, ECHORC [3, 12]: 9.0
herbicidal effect rating, ECHORC [3, 13]: 9.0
herbicidal effect rating, CYPSE [4, 9]: 0.0
herbicidal effect rating, CYPSE [4, 10]: 0.0
herbicidal effect rating, CYPSE [4, 11]: 2.0
herbicidal effect rating, CYPSE [4, 12]: 9.0
herbicidal effect rating, CYPSE [4, 13]: 9.0

CCN(CC)C(=O)COc1ccc(C)cc1-c1nsc2ccc(-n3c(=O)cc(C(F)(F)F)n(C)c3=O)cc12 [Example 60, 3-{3-{6-[(Diethylcarbamoyl)methoxy]-m-tolyl}-1,2-benzisothiazol-5-yl}-1-methyl-6-(trifluoromethyl)-2,4(1H,3H)-pyrimidinedione]
herbicidal effect rating, MOOVA [1, 14]: 9.0
herbicidal effect rating, MOOVA [1, 15]: 9.0
herbicidal effect rating, MOOVA [1, 16]: 9.0
herbicidal effect rating, MOOVA [1, 17]: 9.0
herbicidal effect rating, ORYSAT (rice tolerance) ([2]; 0.0313 kg/ha): 0.0
herbicidal effect rating, ORYSAT (rice tolerance) ([2]; 0.0625 kg/ha): 0.0
herbicidal effect rating, ORYSAT (rice tolerance) ([2]; 0.1250 kg/ha): 0.0
herbicidal effect rating, ORYSAT (rice tolerance) ([2]; 0.2500 kg/ha): 0.0
herbicidal effect rating, SAGPY (Sagittaria pygmaea, L.; [14]): 0.0
herbicidal effect rating, SAGPY (Sagittaria pygmaea, L.; [15]): 0.0
herbicidal effect rating, SAGPY (Sagittaria pygmaea, L.; [16]): 0.0
herbicidal effect rating, SAGPY (Sagittaria pygmaea, L.; [17]): 0.0
herbicidal effect rating, CYPIR (Cyperus iria; [14]): 0.0
herbicidal effect rating, CYPIR (Cyperus iria; [15]): 0.0
herbicidal effect rating, CYPIR (Cyperus iria; [16]): 0.0
herbicidal effect rating, CYPIR (Cyperus iria; [17]): 0.0
herbicidal effect rating, ECHORC [3, 14]: 2.0
herbicidal effect rating, ECHORC [3, 15]: 4.0
herbicidal effect rating, ECHORC [3, 16]: 8.0
herbicidal effect rating, ECHORC [3, 17]: 9.0
herbicidal effect rating, CYPSE [4, 14]: 0.0
herbicidal effect rating, CYPSE [4, 15]: 0.0
herbicidal effect rating, CYPSE [4, 16]: 0.0
herbicidal effect rating, CYPSE [4, 17]: 0.0

Cn1c(C(F)(F)F)cc(=O)n(-c2ccc3snc(C(=O)OCCCO)c3c2)c1=O [Example 410, 1,2-Benzisothiazole-3-carboxylic acid, 5-[3,6-dihydro-3-methyl-2,6-dioxo-4-(trifluoromethyl)-1(2H)-pyrimidinyl]-, 3-hydroxypropyl ester]
MOOVA ([1]; 0.0320 kg/ha): 9.0
MOOVA ([1]; 0.0620 kg/ha): 9.0
MOOVA ([1]; 0.1250 kg/ha): 9.0
MOOVA ([1]; 0.2500 kg/ha): 9.0
ORYSAT ([2]; 0.0320 kg/ha): 0.0
ORYSAT ([2]; 0.0620 kg/ha): 3.0
ORYSAT ([2]; 0.1250 kg/ha): 5.0
ORYSAT ([2]; 0.2500 kg/ha): 7.0
SAGPY (Sagittaria pygmaea, L.; 0.0320 kg/ha): 3.0
SAGPY (Sagittaria pygmaea, L.; 0.0620 kg/ha): 7.0
SAGPY (Sagittaria pygmaea, L.; 0.1250 kg/ha): 9.0
SAGPY (Sagittaria pygmaea, L.; 0.2500 kg/ha): 9.0
CYPIR (Cyperus iria; 0.0320 kg/ha): 9.0
CYPIR (Cyperus iria; 0.0620 kg/ha): 9.0
CYPIR (Cyperus iria; 0.1250 kg/ha): 9.0
CYPIR (Cyperus iria; 0.2500 kg/ha): 9.0
ECHORC ([3]; 0.0320 kg/ha): 0.0
ECHORC ([3]; 0.0620 kg/ha): 0.0
ECHORC ([3]; 0.1250 kg/ha): 9.0
ECHORC ([3]; 0.2500 kg/ha): 9.0
CYPSE ([4]; 0.0320 kg/ha): 2.0
CYPSE ([4]; 0.0620 kg/ha): 5.0
CYPSE ([4]; 0.1250 kg/ha): 9.0
CYPSE ([4]; 0.2500 kg/ha): 9.0
